Type in all cases: cell-based
Assay [1] deals with T1, PrRPR T233A (Homo sapiens, UniProt P49683, T233A).
T1 construct: Flag; expressed in transfected cells; host or cells: AD293 cells
The assay is described as follows: BRET2 Gi dissociation, T233A. The note with it: T233A (5.46), Gi-coupling, AD293 cells; mean ± S.E.M., n = 3; P <0.0001 vs WT; read-out: BRET2 pEC50 (converted). How it is done: (§1) AD293 cells (Agilent) were propagated in Dulbecco’s Modified Eagle Medium (DMEM, Thermo Fisher Scientific), enriched with 10% fetal bovine serum (FBS, Thermo Fisher Scientific), and maintained at 37 °C in a 5% CO2 environment. Cells were then seeded in 6-well dishes at a density of 130,000–150,000 cells per mL and allowed to incubate overnight. On the next day, cells were transfected with plasmids at a 1:1:1:1 ratio for receptor:Gα-RLuc8:Gβ:Gγ-GFP2[52]. PEI MAX 40 K (BIOHUB) was utilized to form complex with the plasmids at a ratio of 3 µL PEI per µg of plasmids, in OptiMEM (Gibco-Thermo Fisher Scientific) at a concentration of 10 ng plasmids per µL OptiMEM. After 24 h of incubation, the culture was harvested by centrifugation with PBS. The cell suspension was then allocated into a white 384-well plate at a volume of 30 µL per well, followed by the addition of 10 µL of freshly prepared 50 µM coelenterazine 400a (Yeasen). Following a 15-min equilibration period, cells were treated with 10 µL of ligand for an additional 5 min. Plates were subsequently read in a BioTek Synergy H1 microplate reader (BioTek) equipped with 395 nm (RLuc8-coelenterazine 400a) and 510 nm (GFP2) emission filters. BRET2 ratios were calculated as the ratio of the GFP2 emission to RLuc8 emission. Data were normalized to the baseline response of the ligand. […]
In general terms: In BRET a luciferase serves as donor, and the signal depends on an acceptor being close.

The target of the next assay is T2, PrRPR V208A (Homo sapiens, UniProt P49683, V208A).
T2 construct: expressed in transfected cells; host or cells: AD293 cells
T2 sequence (P49683 whole entry V208A): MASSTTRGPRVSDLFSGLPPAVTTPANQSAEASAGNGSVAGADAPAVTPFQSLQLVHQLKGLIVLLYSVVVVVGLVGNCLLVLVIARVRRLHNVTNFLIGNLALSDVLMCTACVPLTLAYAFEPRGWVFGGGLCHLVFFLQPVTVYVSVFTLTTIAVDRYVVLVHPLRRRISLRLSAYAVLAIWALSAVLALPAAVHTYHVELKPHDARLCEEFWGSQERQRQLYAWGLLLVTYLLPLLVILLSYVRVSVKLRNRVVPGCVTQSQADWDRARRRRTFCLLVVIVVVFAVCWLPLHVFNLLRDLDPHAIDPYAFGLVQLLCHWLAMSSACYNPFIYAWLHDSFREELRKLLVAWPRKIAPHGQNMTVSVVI
The assay is described as follows: BRET2 Gq dissociation, V208A. The note with it: V208A (ECL2), Gq-coupling, AD293 cells; mean ± S.E.M., n = 3; P 0.0347 vs WT; read-out: BRET2 pEC50 (converted). Here is the method: as §1, with “Following a 15-min equilibration period, cells were treated with 10 µL of ligand for an additional 5 min.” left out, “emission.” for “emission. Data were normalized to the baseline response of the ligand.”
(§2) Supplementary Fig. S4 | Effects of mutations in the ligand-binding pocket and G protein intereface of Gq coupled PrRPR by BRET2 assay. […] BRET2 assay signals were measured after stimulation with PrRP20. […]

For another assay, the target named is T3, PrRPR Q317A (Homo sapiens, UniProt P49683, Q317A).
T3 construct: Flag; expressed in transfected cells; host or cells: AD293 cells
T3 sequence (P49683 whole entry Q317A): as the sequence (P49683 whole entry V208A) above, with A208V, Q317A counted along it
The assay is described as follows: BRET2 Gi dissociation, Q317A. The note with it: Q317A (7.35), Gi-coupling, AD293 cells; mean ± S.E.M., n = 3; P <0.0001 vs WT; read-out: BRET2 pEC50 (converted). Here is the method: as §1

A further assay concerns the target T4, PrRPR V145A (Homo sapiens, UniProt P49683, V145A).
T4 construct: expressed in transfected cells; host or cells: AD293 cells
The assay is described as follows: BRET2 Gi dissociation, V145A. The note with it: V145A (3.36), Gi-coupling, AD293 cells; mean ± S.E.M., n = 3; P 0.9852 vs WT; read-out: BRET2 pEC50 (converted). Here is the method: as §1

In another assay the target is T5, PrRPR C113A (Homo sapiens, UniProt P49683, C113A).
T5 construct: expressed in transfected cells; host or cells: AD293 cells
T5 sequence (P49683 whole entry C113A): as the sequence (P49683 whole entry V208A) above, with C113A, A208V counted along it
The assay is described as follows: BRET2 Gi dissociation, C113A. To be noted: C113A (2.57), Gi-coupling, AD293 cells; mean ± S.E.M., n = 3; P 0.0008 vs WT; read-out: BRET2 pEC50 (converted). How it is done:
as §1

The target of another assay is T6, PrRPR E212A (Homo sapiens, UniProt P49683, E212A).
T6 construct: expressed in transfected cells; host or cells: AD293 cells
T6 sequence (P49683 whole entry E212A): as the sequence (P49683 whole entry V208A) above, with A208V, E212A counted along it
The assay is described as follows: BRET2 Gq dissociation, E212A. To be noted: E212A (45.51), Gq-coupling, AD293 cells; mean ± S.E.M., n = 3; P <0.0001 vs WT; read-out: BRET2 pEC50 (converted). Here is the method: as §1, with “Following a 15-min equilibration period, cells were treated with 10 µL of ligand for an additional 5 min.” left out, “emission.” for “emission. Data were normalized to the baseline response of the ligand.”
as §2

Another assay addresses T7, PrRPR Y225A (Homo sapiens, UniProt P49683, Y225A).
T7 construct: Flag; expressed in transfected cells; host or cells: AD293 cells
The assay is described as follows: BRET2 Gi dissociation, Y225A. To be noted: Y225A (5.38), Gi-coupling, AD293 cells; mean ± S.E.M., n = 3; P <0.0001 vs WT; read-out: BRET2 pEC50 (converted). How it is done:
as §1

For a further assay, the target named is T8, PrRPR L229A (Homo sapiens, UniProt P49683, L229A).
T8 construct: Flag; expressed in transfected cells; host or cells: AD293 cells
T8 sequence (P49683 whole entry L229A): as the sequence (P49683 whole entry V208A) above, with A208V, L229A counted along it
The assay is described as follows: BRET2 Gq dissociation, L229A. The note with it: L229A (5.42), Gq-coupling, AD293 cells; mean ± S.E.M., n = 3; P <0.0001 vs WT; read-out: BRET2 pEC50 (converted). Here is the method:
as §1, with “Following a 15-min equilibration period, cells were treated with 10 µL of ligand for an additional 5 min.” left out, “emission.” for “emission. Data were normalized to the baseline response of the ligand.”
as §2

The target of assay [2] is T1, PrRPR T233A. The assay is described as follows: BRET2 Gq dissociation, T233A. The note with it: T233A (5.46), Gq-coupling, AD293 cells; mean ± S.E.M., n = 3; P <0.0001 vs WT; read-out: BRET2 pEC50 (converted). How it is done: as §1, with “Following a 15-min equilibration period, cells were treated with 10 µL of ligand for an additional 5 min.” left out, “emission.” for “emission. Data were normalized to the baseline response of the ligand.”
as §2

For another assay, the target named is T9, PrRPR T117A (Homo sapiens, UniProt P49683, T117A).
T9 construct: expressed in transfected cells; host or cells: AD293 cells
T9 sequence (P49683 whole entry T117A): as the sequence (P49683 whole entry V208A) above, with T117A, A208V counted along it
The assay is described as follows: BRET2 Gq dissociation, T117A. The note with it: T117A (2.61), Gq-coupling, AD293 cells; mean ± S.E.M., n = 3; P <0.0001 vs WT; read-out: BRET2 pEC50 (converted). How it is done: as §1, with “Following a 15-min equilibration period, cells were treated with 10 µL of ligand for an additional 5 min.” left out, “emission.” for “emission. Data were normalized to the baseline response of the ligand.”
as §2

A further assay addresses T10, PrRPR Y120A (Homo sapiens, UniProt P49683, Y120A).
T10 construct: expressed in transfected cells; host or cells: AD293 cells
The assay is described as follows: BRET2 Gi dissociation, Y120A. To be noted: Y120A (2.64), Gi-coupling, AD293 cells; mean ± S.E.M., n = 3; P <0.0001 vs WT; read-out: BRET2 pEC50 (converted). Here is the method: as §1

For the next assay, the target named is T11, PrRPR D302A (Homo sapiens, UniProt P49683, D302A).
T11 construct: Flag; expressed in transfected cells; host or cells: AD293 cells
T11 sequence (P49683 whole entry D302A): as the sequence (P49683 whole entry V208A) above, with A208V, D302A counted along it
The assay is described as follows: BRET2 Gi dissociation, D302A. To be noted: D302A (6.59), Gi-coupling, AD293 cells; mean ± S.E.M., n = 3; P <0.0001 vs WT; read-out: BRET2 pEC50 (converted). How it is done:
as §1

Peptide text beside a SMILES is read from it.

T1 sequence (P49683 whole entry T233A): as the sequence (P49683 whole entry V208A) above, with A208V, T233A counted along it
T7 sequence (P49683 whole entry Y225A): as the sequence (P49683 whole entry V208A) above, with A208V, Y225A counted along it
T4 sequence (P49683 whole entry V145A): as the sequence (P49683 whole entry V208A) above, with V145A, A208V counted along it
T10 sequence (P49683 whole entry Y120A): as the sequence (P49683 whole entry V208A) above, with Y120A, A208V counted along it

As to `CC[C@H](C)[C@H](NC(=O)CNC(=O)[C@H](CCCNC(=N)N)NC(=O)[C@H](CO)NC(=O)[C@H](C)NC(=O)[C@H](Cc1ccc(O)cc1)NC(=O)[C@H](Cc1c[nH]c2ccccc12)NC(=O)[C@H](C)NC(=O)[C@@H]1CCCN1C(=O)[C@H](CC(N)=O)NC(=O)[C@@H](NC(=O)[C@H](CC(=O)O)NC(=O)[C@@H]1CCCN1C(=O)[C@@H](N)[C@@H](C)O)[C@@H](C)CC)C(=O)N[C@@H](CCCNC(=N)N)C(=O)N1CCC[C@H]1C(=O)N[C@H](C(=O)NCC(=O)N[C@@H](CCCNC(=N)N)C(=O)N[C@@H](Cc1ccccc1)C(N)=O)C(C)C` [PrRP20] (H-TPDINPAWYASRGIRPVGRF-NH2), the EC50 was 18.6 nM at PrRPR T233A [1]; 2.45 nM on PrRPR V208A; 4170 nM at PrRPR Q317A; 2.63 nM on PrRPR V145A; 7.08 nM on PrRPR C113A; 28.8 nM on PrRPR E212A. The EC50 was 550 nM at PrRPR Y225A; 20.4 nM at PrRPR L229A; 5.75 nM on PrRPR T233A [2]; 107 nM at PrRPR T117A; 3390 nM at PrRPR Y120A; 1120 nM on PrRPR D302A.

Source of the values: paper PMC11369081, “Molecular mechanism of prolactin-releasing peptide recognition and signaling via its G protein-coupled receptor” (Cell Discovery, 2024).
